The values below are quoted from earlier work in US8771972B2 (Saladax Biomedical Inc., priority 2011, dated 2014).

The conditions of this series: background statement.

On to `Clc1ccc2c(c1)N=C(N1CCNCC1)c1ccccc1N2` [N-desmethyl metabolite, N-desmethylclozapine], for which the activity of metabolite result is “limited activity”.
As to `C[N+]1([O-])CCN(C2=Nc3cc(Cl)ccc3Nc3ccccc32)CC1` [N-Oxide derivative, Clozapine-N-oxide], the activity of metabolite result was “inactive”.
